According to patent US10098852B2 (LAUNX BIOMEDICAL CO., LTD., priority 2014, dated 2018):
Read-outs that look alike come from different tables or passages of the source.

Key:
Assay type in all cases: cell-based
prostate cancer cell = experiment: Summary of the effect on prostate cancer cell (PC-3, LNCap); conditions: Homo sapiens, prostate cancer cell (mean of PC-3 and LNCap averages), 72 hours, read-out: Inhibitory effect
Method: (§1) Removing the original culture medium from 96-well plate. Then add 100 μl of commercially drug at a concentration of 10 μM per well. After 72 hours, add the diluted WST-1 reagent to the well with 100 μl/well, and the diluted WST-1 reagent was acquired from the dilution of 9:1 medium and WST-1 stock reagent. Finally, the total volume of each well was 200 μl/well. Culture the 96-well plate at 37° C. for 30 to 90 minutes. Detecting and calculate the survival rate of each cancer cells with an ELISA reader at OD450 nm.

[1] = system: A549 (lung adenocarcinoma); experiment: Cell viability analysis (WST-1), lung cancer cell line A549; conditions: Homo sapiens
[2] = system: HepG2 (hepatocellular carcinoma); experiment: Cell viability analysis (WST-1), hepatic cancer cell line HepG2; conditions: Homo sapiens
Method: (§2) The cell numbers were counted and reseed as 2×10^6 in cell culture plate/flask. Then, the culture medium was added to a volume of 10 ml, and the cells were cultured for 2-3 days. Then, the cells were suspended for loading into 96-well plates. The cell number was 3000/well and the volume of the culture medium was 100 μl each well.
as §1

[3] = Cell viability analysis (WST-1), human fibroblast cell line HFW; conditions: HFW fibroblast cells (normal)
Method: as §2, §1

[4] = system: C-33A (Cervical carcinoma); experiment: Cell viability analysis (WST-1), cervical cancer cell line C-33A; conditions: Homo sapiens, 72 h
Method: as §2, §1

[5] = system: HeLa (Cervix Adenocarcinoma); experiment: Cell viability analysis (WST-1), cervical cancer cell line HeLa; conditions: Homo sapiens
Method: as §2, §1

bladder cancer cell = experiment: Summary of the effect on bladder cancer cell (TSGH, T24); conditions: bladder cancer cell (mean of TSGH and T24 averages), 72 hours, read-out: Inhibitory effect
Method: as §1

[6] = system: LNCap (prostate cancer cell line); experiment: Cell viability analysis (WST-1), prostate cancer cell line LNCap; conditions: Homo sapiens
Method: as §2, §1

[7] = system: SAS (Tongue squamous cell carcinoma); experiment: Cell viability analysis (WST-1), tongue cancer cell line SAS
Method: as §2, §1

[8] = system: U2OS (osteosarcoma cell line); experiment: Cell viability analysis (WST-1), osteosarcoma cell line U2OS; conditions: Homo sapiens
Method: as §2, §1

gastric cancer cell = experiment: Summary of the effect on gastric cancer cell (AGS, MKN-45); conditions: Homo sapiens, gastric cancer cell (mean of AGS and MKN-45 averages), 72 hours, read-out: Inhibitory effect
Method: as §1

ovarian cancer cell = experiment: Summary of the effect on ovarian cancer cell (NIH-OVCAR-3, TOV-21G); conditions: ovarian cancer cell (mean of NIH-OVCAR-3 and TOV-21G averages), 72 hours, read-out: Inhibitory effect
Method: as §1

[9] = system: LoVo (Colorectal Adenocarcinoma); experiment: Cell viability analysis (WST-1), colorectal cancer cell line LoVo; conditions: Homo sapiens
Method: as §2, §1

[10] = system: MDA-MB-231 (Mammary Gland, Adenocarcinoma); experiment: Cell viability analysis (WST-1), breast cancer cell line MDA-MB-231; conditions: Homo sapiens
Method: as §2, §1

[11] = system: A375 (amelanotic melanoma); experiment: Cell viability analysis (WST-1), skin cancer cell line A375; conditions: Homo sapiens
Method: as §2, §1

[12] = system: AsPC-1 (pancreatic cancer cell line); experiment: Cell viability analysis (WST-1), pancreatic cancer cell line AsPC-1; conditions: Homo sapiens
Method: as §2, §1

skin cancer cell = experiment: Summary of the effect on skin cancer cell (A375, BCC); conditions: Homo sapiens, A-375, skin cancer cell (mean of A375 and BCC averages), 72 hours, read-out: Inhibitory effect
Method: as §1

lung cancer cell = experiment: Summary of the effect on lung cancer cell (A549, H1650); conditions: lung cancer cell (mean of A549 and H1650 averages), 72 hours, read-out: Inhibitory effect
Method: as §1

[13] = system: BxPC-3 (pancreatic cancer cell line); experiment: Cell viability analysis (WST-1), pancreatic cancer cell line BxPC-3; conditions: Homo sapiens
Method: as §2, §1

[14] = average of 4 tests, read-out: inhibition effect (survival rate of cells), average
[15] = 72 h, average of 4 tests, read-out: inhibition effect (survival rate of cells), average

Molecule `Oc1ccc(OCc2ccccc2)cc1` [Monobenzone] has a viability at 10 µM (prostate cancer cell) of 65.2%, a viability at 10 µM ([1]; A549, 72 h, A549, 10 μM, average of 4 tests, read-out: inhibition effect (survival rate of cells), Average) of 93.4% and a viability at 10 µM ([1]; A549, A549, 10 μM, 72 hours, test 0524-10 min, read-out: inhibition effect (survival rate of cells)) of 80.8%. It also gave a viability at 10 µM ([1]; A549, A549, 10 μM, 72 hours, test 0526-10 min, read-out: inhibition effect (survival rate of cells)) of 111%, a viability at 10 µM ([1]; A549, A549, 10 μM, 72 hours, test 0529-10 min, read-out: inhibition effect (survival rate of cells)) of 80.8% and a viability at 10 µM ([2]; HepG2, 72 h, HepG2, 10 μM, average of 4 tests, read-out: inhibition effect (survival rate of cells), average) of 84.7%. For the same molecule, the viability at 10 µM ([2]; HepG2, HepG2, 10 μM, 72 hours, test 0524-20 min, read-out: inhibition effect (survival rate of cells)) was 88.2%, the viability at 10 µM ([2]; HepG2, HepG2, 10 μM, 72 hours, test 0526-20 min, read-out: inhibition effect (survival rate of cells)) was 85.6% and the viability at 10 µM ([2]; HepG2, HepG2, 10 μM, 72 hours, test 0529-20 min, read-out: inhibition effect (survival rate of cells)) was 90.8%. The viability at 10 µM ([2]; HepG2, HepG2, 10 μM, 72 hours, test 0531-20 min, read-out: inhibition effect (survival rate of cells)) was 74.3%, the viability at 72 h, 10 µM [3, 14] was 85.4% and the viability at 72 h, 10 µM ([3]; test 0612-10 min, read-out: inhibition effect (survival rate of cells)) was 120%. For the same molecule, the viability at 72 h, 10 µM ([3]; test 0614-10 min, read-out: inhibition effect (survival rate of cells)) was 74.9%, the viability at 72 h, 10 µM ([3]; test 0616-10 min, read-out: inhibition effect (survival rate of cells)) was 68.1% and the viability at 72 h, 10 µM ([3]; test 0619-10 min, read-out: inhibition effect (survival rate of cells)) was 79.1%. For the same molecule, the viability at 10 µM [4, 14] was 62.3%, the viability at 10 µM ([4]; test 1, read-out: inhibition effect (survival rate of cells)) was 57.9% and the viability at 10 µM ([4]; test 2, read-out: inhibition effect (survival rate of cells)) was 66.2%. The viability at 10 µM ([4]; test 3, read-out: inhibition effect (survival rate of cells)) was 61%, the viability at 10 µM ([4]; test 4, read-out: inhibition effect (survival rate of cells)) was 64.3% and the viability at 10 µM [5, 15] was 80.1%. For the same molecule, the viability at 10 µM ([5]; 72 hours, test 0524-10 min, read-out: inhibition effect (survival rate of cells)) was 82.8%, the viability at 10 µM ([5]; 72 hours, test 0526-10 min, read-out: inhibition effect (survival rate of cells)) was 72.8% and the viability at 10 µM ([5]; 72 hours, test 0529-10 min, read-out: inhibition effect (survival rate of cells)) was 82.7%. For the same molecule, the viability at 10 µM ([5]; 72 hours, test 0531-10 min, read-out: inhibition effect (survival rate of cells)) was 81.9%, the viability at 10 µM (bladder cancer cell) was 85.8% and the viability at 10 µM [6, 15] was 67.9%. It also gave a viability at 10 µM ([6]; 72 hours, test LNCap-1-10 min, read-out: inhibition effect (survival rate of cells)) of 65.5%, a viability at 10 µM ([6]; 72 hours, test LNCap-2-20 min, read-out: inhibition effect (survival rate of cells)) of 52.7% and a viability at 10 µM ([6]; 72 hours, test LNCap-3-20 min, read-out: inhibition effect (survival rate of cells)) of 81.6%. It also gave a viability at 10 µM ([6]; 72 hours, test LNCap-4-20 min, read-out: inhibition effect (survival rate of cells)) of 71.6%, a viability at 10 µM ([7]; 72 h, SAS, average of 4 tests, read-out: inhibition effect (survival rate of cells), average) of 90.3% and a viability at 10 µM ([7]; 72 h, tongue cancer cell (SAS average), read-out: Inhibitory effect) of 90.3%. For the same molecule, the viability at 10 µM ([7]; SAS, 72 hours, test 6-26-10 min, read-out: inhibition effect (survival rate of cells)) was 97.3%, the viability at 10 µM ([7]; SAS, 72 hours, test 6-28-10 min, read-out: inhibition effect (survival rate of cells)) was 59.4% and the viability at 10 µM ([7]; SAS, 72 hours, test 6-30-10 min, read-out: inhibition effect (survival rate of cells)) was 89.6%. For the same molecule, the viability at 10 µM ([7]; SAS, 72 hours, test 7-3-10 min, read-out: inhibition effect (survival rate of cells)) was 115%, the viability at 10 µM [8, 15] was 72.7% and the viability at 10 µM ([8]; 72 h, osteosarcoma cell (U2OS average), read-out: Inhibitory effect) was 72.7%. It also gave a viability at 10 µM ([8]; 72 hours, test 6-26-10 min, read-out: inhibition effect (survival rate of cells)) of 69.3%, a viability at 10 µM ([8]; 72 hours, test 6-28-10 min, read-out: inhibition effect (survival rate of cells)) of 66.7% and a viability at 10 µM ([8]; 72 hours, test 6-30-10 min, read-out: inhibition effect (survival rate of cells)) of 73%. For the same molecule, the viability at 10 µM ([8]; 72 hours, test 7-3-10 min, read-out: inhibition effect (survival rate of cells)) was 81.7%, the viability at 10 µM (gastric cancer cell) was 82.8% and the viability at 10 µM (ovarian cancer cell) was 85%. The viability at 10 µM [9, 15] was 83%, the viability at 10 µM ([9]; 72 hours, test 0616-10 min, read-out: inhibition effect (survival rate of cells)) was 82.3% and the viability at 10 µM ([9]; 72 hours, test 0619-10 min, read-out: inhibition effect (survival rate of cells)) was 73.9%. For the same molecule, the viability at 10 µM ([9]; 72 hours, test 0621-10 min, read-out: inhibition effect (survival rate of cells)) was 94.7%, the viability at 10 µM ([9]; 72 hours, test 0623-10 min, read-out: inhibition effect (survival rate of cells)) was 81.3% and the viability at 10 µM ([10]; MDA-MB-231, 72 h, MDA-MB-231, 10 μM, average of 4 tests, read-out: inhibition effect (survival rate of cells), average) was 80.1%. The viability at 10 µM ([10]; MDA-MB-231, MDA-MB-231, 10 μM, 72 hours, test 0612-10 min, read-out: inhibition effect (survival rate of cells)) was 91.3%, the viability at 10 µM ([10]; MDA-MB-231, MDA-MB-231, 10 μM, 72 hours, test 0614-10 min, read-out: inhibition effect (survival rate of cells)) was 67.6% and the viability at 10 µM ([10]; MDA-MB-231, MDA-MB-231, 10 μM, 72 hours, test 0616-10 min, read-out: inhibition effect (survival rate of cells)) was 69.6%. It also gave a viability at 10 µM ([10]; MDA-MB-231, MDA-MB-231, 10 μM, 72 hours, test 0619-10 min, read-out: inhibition effect (survival rate of cells)) of 92%, a viability at 10 µM ([11]; A-375, 72 h, A375, 10 μM, average of 4 tests, read-out: inhibition effect (survival rate of cells), Average) of 76.4% and a viability at 10 µM ([11]; A-375, A375, 10 μM, 72 hours, test 0602-30 min, read-out: inhibition effect (survival rate of cells)) of 56.7%. The viability at 10 µM ([11]; A-375, A375, 10 μM, 72 hours, test 0605-10 min, read-out: inhibition effect (survival rate of cells)) was 64.8%, the viability at 10 µM ([11]; A-375, A375, 10 μM, 72 hours, test 0607-10 min, read-out: inhibition effect (survival rate of cells)) was 77.3% and the viability at 10 µM ([11]; A-375, A375, 10 μM, 72 hours, test 0609-10 min, read-out: inhibition effect (survival rate of cells)) was 107%. It also gave a viability at 10 µM ([12]; ASPC1, 72 h, AsPC-1, 10 μM, average of 4 tests, read-out: inhibition effect (survival rate of cells), average) of 95.1%, a viability at 10 µM ([12]; ASPC1, AsPC-1, 10 μM, 72 hours, test 1-4-30 min, read-out: inhibition effect (survival rate of cells)) of 93.7% and a viability at 10 µM ([12]; ASPC1, AsPC-1, 10 μM, 72 hours, test 1-7-3-30 min, read-out: inhibition effect (survival rate of cells)) of 88.7%. It also gave a viability at 10 µM ([12]; ASPC1, AsPC-1, 10 μM, 72 hours, test 1-7-4-30 min, read-out: inhibition effect (survival rate of cells)) of 116%, a viability at 10 µM ([12]; ASPC1, AsPC-1, 10 μM, 72 hours, test 1-7-7-30 min, read-out: inhibition effect (survival rate of cells)) of 81.7% and a viability at 10 µM (skin cancer cell) of 63.2%. The viability at 10 µM (lung cancer cell) was 89.8%, the viability at 10 µM ([13]; BXPC-3, 72 h, BxPC-3, 10 μM, average of 4 tests, read-out: inhibition effect (survival rate of cells), average) was 78.6% and the viability at 10 µM ([13]; BXPC-3, BxPC-3, 10 μM, 72 hours, test 3-4-30 min, read-out: inhibition effect (survival rate of cells)) was 86.3%. For the same molecule, the viability at 10 µM ([13]; BXPC-3, BxPC-3, 10 μM, 72 hours, test 3-7-3-30 min, read-out: inhibition effect (survival rate of cells)) was 57.4%, the viability at 10 µM ([13]; BXPC-3, BxPC-3, 10 μM, 72 hours, test 3-7-4-30 min, read-out: inhibition effect (survival rate of cells)) was 100% and the viability at 10 µM ([13]; BXPC-3, BxPC-3, 10 μM, 72 hours, test 3-7-7-30 min, read-out: inhibition effect (survival rate of cells)) was 70.7%.
